≈ marks a conversion by molar mass, not a printed value.
Tests used:
[1] = tested on: L1210; test: Antitumor activity expressed as mean survival time against L1210 leukemia cells in mice after sc administration at dose 15 mg/kg; settings: route subcutaneous
[2] = The efflux rate constant of the compound; format: ADME
[3] = tested on: Enterococcus faecium; test: Concentration required for the 50% growth inhibition of Streptococcus faecium ATCC 8043 organism at 1 ng/mL folate concentration; format: functional, organism-based
[4] = target: Dihydrofolate reductase (Lactobacillus casei) (UniProt P00381); test: Concentration required for the 50% growth inhibition of Lactobacillus casei dihydrofolate reductase enzyme; settings: Lacticaseibacillus casei
[5] = tested on: L1210; test: Antitumor activity expressed as mean survival time against L1210 leukemia cells in mice after sc administration at dose 3 mg/kg; settings: route subcutaneous
[6] = Michaelis constant of compound was determined from affinity towards carrier component of transport mechanism
[7] = target: T1, Dihydrofolate reductase (Mus musculus, UniProt P00375); test: Tested for inhibition of dihydrofolate reductase enzyme
T1 sequence (P00375 whole entry): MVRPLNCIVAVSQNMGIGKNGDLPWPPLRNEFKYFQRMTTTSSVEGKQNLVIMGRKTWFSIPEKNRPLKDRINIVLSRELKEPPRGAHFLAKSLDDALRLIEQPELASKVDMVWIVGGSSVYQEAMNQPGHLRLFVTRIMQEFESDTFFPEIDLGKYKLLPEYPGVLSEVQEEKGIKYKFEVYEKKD

[8] = Influx velocity of the compound; format: ADME
[9] = tested on: L1210; test: % increase in lifespan was measured at 15 mg/kg dosage after sc administration; settings: Mus musculus
[10] = tested on: L1210; test: % increase in lifespan was measured at 3 mg/kg dosage after sc administration; settings: Mus musculus
[11] = tested on: L1210; test: Minimum inhibitory concentration of compound was tested for growth inhibition of L1210 cells; format: functional; settings: Mus musculus
[12] = Concentration required for the 50% growth inhibition of Streptococcus faecium ATCC 8043 organism at 1 ng/mL folate concentration
[13] = tested on: Enterococcus faecium; test: Concentration required for the 50% growth inhibition of Streptococcus faecium MTX resist organism at 1 ng/mL folate concentration; format: functional, organism-based
[14] = tested on: Lacticaseibacillus casei; test: Concentration required for the 50% growth inhibition of Lactobacillus casei ATCC 7469 organism at 1 ng/mL folate concentration; format: functional, organism-based
[15] = tested on: L1210; test: Minimum inhibitory concentration of compound was tested for growth inhibition of L1210 cells.; format: functional; settings: Mus musculus
[16] = target: T1, Dihydrofolate reductase; test: Tested for inhibition of dihydrofolate reductase enzyme from mouse

Dihydrofolate reductase (Lactobacillus casei), sequence (P00381 whole entry): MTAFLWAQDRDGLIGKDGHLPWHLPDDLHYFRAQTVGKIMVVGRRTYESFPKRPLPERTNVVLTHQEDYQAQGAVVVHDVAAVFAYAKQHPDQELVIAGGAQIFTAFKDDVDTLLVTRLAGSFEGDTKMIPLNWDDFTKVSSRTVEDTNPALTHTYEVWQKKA

SMILES	MST [1] [days]	K [2] [min⁻¹]	Concentration [3] [ng/mL]	IC50 [4] [nM]	MST [5] [days]	Km [6] [µM]	Ki [7] [nM]	Vmax [8] [nM/min/g]	ILS at 15 mg/kg [9] [%]	ILS at 3 mg/kg [10] [%]	MIC50 [11] [µM]	Concentration [12] [ng/mL]	Concentration [13] [ng/mL]	Concentration [14] [ng/mL]	MIC50 [15] [µM]	Ki [16] [nM]
CC(C)(Cc1cnc2nc(N)nc(N)c2n1)c1ccc(C(=O)NC(CCC(=O)O)C(=O)O)cc1 (stereo not given)	15.9	0.24	0.25	27	16.1	0.93	0.0026	8.31	135	143	0.00058 (≈ 0.271 ng/mL)	0.25	> 2000	0.04	–	–
CC(Cc1cnc2nc(N)nc(N)c2n1)c1ccc(C(=O)NC(CCC(=O)O)C(=O)O)cc1 (stereo not given)	22.1	0.23	0.32	28	18.6	1.01	0.0024	8.02	235	181	0.00051 (≈ 0.231 ng/mL)	0.32	200	0.03	–	–
CC(C)(Cc1cnc2nc(N)nc(N)c2n1)c1ccc(C(=O)O)cc1	–	–	0.5	440	–	–	–	–	–	–	–	0.5	40	3.6	–	–
Nc1nc(N)c2nc(CCc3ccc(C(=O)N[C@@H](CCC(=O)O)C(=O)O)cc3)cnc2n1	18.4	0.23	0.2	–	17.3	0.96	0.0021	8.13	178	162	0.00061 (≈ 0.268 ng/mL)	0.2	> 2000	0.01	–	–
CCC(Cc1cnc2nc(N)nc(N)c2n1)c1ccc(C(=O)O)cc1 (stereo not given)	–	–	0.9	380	–	–	–	–	–	–	–	0.9	50	5.4	–	–
CN(Cc1cnc2nc(N)nc(N)c2n1)c1ccc(C(=O)N[C@@H](CCC(=O)O)C(=O)O)cc1 [METHOTREXATE]	16.6	0.19	0.05	–	15.8	3.42	–	7.77	151	139	0.00271 (≈ 1.23 ng/mL)	–	3500	0.01	–	–
Nc1nc(N)c2nc(CNc3ccc(C(=O)N[C@@H](CCC(=O)O)C(=O)O)cc3)cnc2n1 [AMINOPTERIN]	–	0.21	–	–	–	1.21	–	7.83	–	–	–	–	–	–	0.00061 (≈ 0.269 ng/mL)	0.0023
CCC(Cc1cnc2nc(N)nc(N)c2n1)c1ccc(C(=O)NC(CCC(=O)O)C(=O)O)cc1 (stereo not given)	20.5	0.2	0.37	27	17.8	0.89	–	7.8	211	170	0.00055 (≈ 0.257 ng/mL)	0.37	1300	0.08	–	–
CC(Cc1cnc2nc(N)nc(N)c2n1)c1ccc(C(=O)O)cc1 (stereo not given)	–	–	0.72	420	–	–	–	–	–	–	–	0.72	60	5	–	–

Reference: ChEMBL document CHEMBL1122176, “Synthesis and antitumor activity of 10-alkyl-10-deazaminopterins. A convenient synthesis of 10-deazaminopterin” (J Med Chem, 1982)
